# From patent US10226453B2, “3-(1H-indol-2-yl)-1H-pyrazolo[4,3-B]pyridines and therapeutic uses thereof” (Samumed, LLC, priority 2015, dated 2019)
# Assays:
# IL-6 (THP-1 cells) = test: IL-6 inhibition in LPS-stimulated THP-1 human monocyte cells (HTRF); assay type: cell-based; conditions: LPS 500 ng/mL; for EC50: 22 hours, IL6 HTRF; for inhibition at 10 µM: given where EC50 >10 μM, read-out: percent inhibition at 10 μM
# Outline: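 Readout is the 665/620 nm HTRF ratio for secreted IL-6, normalized to DMSO wells, with EC50 from a variable-slope four-parameter fit, or % inhibition at 10 μM when above 10 μM. Cells (1% FBS, 24 h beforehand) got compound for 2 h, then LPS 500 ng/mL for 22 h at 37° C; top dose 10 μM, 0.1% DMSO.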
# [1] = tested on: primary human fibroblasts derived from IPF patients (LL29 cells) treated with TGF-β1; test: Inhibition of the fibrotic process: αSMA staining in TGF-β1 treated primary human fibroblasts from IPF patients (LL29 cells); assay type: cell-based; conditions: Fibroblast, 96 h, TGF-β1 20 ng/mL, 4 days; for EC50: % αSMA positive cells
# Outline: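 EC50 values come from non-linear fits of the αSMA-positive percentage among SYTOX-excluded live cells, normalized to TGF-β1 plus DMSO controls, or appear as % inhibition at 10 μM when above 10 μM. Fibrosis was induced in IPF-derived LL29 fibroblasts by 20 ng/mL TGF-β1 over 4 days, with 1:2 compound dilutions from 10 μM.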
Structure (SMILES),EC50 (IL-6 (THP-1 cells)),EC50 [1],inhibition at 10 µM (IL-6 (THP-1 cells)),"inhibition at 10 µM ([1]; given where EC50 >10 μM, 10 μM, read-out: percent inhibition at 10 μM)"
"CC(C)(C)C(=O)Nc1cncc(-c2ccc3[nH]nc(-c4cc5c(-c6cccc(F)c6)cccc5[nH]4)c3n2)c1 [Compound 8, N-(5-(3-(4-(3-Fluorophenyl)-1H-indol-2-yl)-1H-pyrazolo[4,3-b]pyridin-5-yl)pyridin-3-yl)pivalamide]",2.71 µM,3.67 µM,,
"CN(C)Cc1cncc(-c2ccc3[nH]nc(-c4cc5c(-c6ccc(F)cc6)cccc5[nH]4)c3n2)c1 [Compound 41, 1-(5-(3-(4-(4-Fluorophenyl)-1H-indol-2-yl)-1H-pyrazolo[4,3-b]pyridin-5-yl)pyridin-3-yl)-N,N-dimethylmethanamine]",0.549 µM,0.544 µM,,
"Fc1ccc(-c2cccc3[nH]c(-c4n[nH]c5ccc(-c6cncnc6)nc45)cc23)cc1 [Compound 55, 3-(4-(4-Fluorophenyl)-1H-indol-2-yl)-5-(pyrimidin-5-yl)-1H-pyrazolo[4,3-b] pyridine]",0.103 µM,0.89 µM,,
"Fc1ccccc1-c1cccc2[nH]c(-c3n[nH]c4ccc(-c5cncc(CN6CCCCC6)c5)nc34)cc12 [Compound 71, 3-(4-(2-Fluorophenyl)-1H-indol-2-yl)-5-(5-(piperidin-1-ylmethyl)pyridin-3-yl)-1H-pyrazolo[4,3-b]pyridine]",0.271 µM,0.725 µM,,
"Fc1ccccc1-c1cccc2[nH]c(-c3n[nH]c4ccc(-c5cncc(CNCc6ccccc6)c5)nc34)cc12 [Compound 80, N-Benzyl-1-(5-(3-(4-(2-fluorophenyl)-1H-indol-2-yl)-1H-pyrazolo[4,3-b]pyridin-5-yl)pyridin-3-yl)methanamine]",6.73 µM,2.49 µM,,
"c1cncc(-c2ccc3[nH]nc(-c4cc5c(-c6cccnc6)cccc5[nH]4)c3n2)c1 [Compound 88, 5-(Pyridin-3-yl)-3-(4-(pyridin-3-yl)-1H-indol-2-yl)-1H-pyrazolo[4,3-b] pyridine]",0.031 µM,0.088 µM,,
"CN(C)Cc1cncc(-c2ccc3[nH]nc(-c4cc5c(-c6cccnc6)cccc5[nH]4)c3n2)c1 [Compound 97, N,N-Dimethyl-1-(5-(3-(4-(pyridin-3-yl)-1H-indol-2-yl)-1H-pyrazolo[4,3-b]pyridin-5-yl)pyridin-3-yl)methanamine]",0.154 µM,0.451 µM,,
"Nc1cncc(-c2ccc3[nH]nc(-c4cc5c(-c6ccncc6)cccc5[nH]4)c3n2)c1 [Compound 115, 5-(3-(4-(Pyridin-4-yl)-1H-indol-2-yl)-1H-pyrazolo[4,3-b]pyridin-5-yl) pyridin-3-amine]",0.052 µM,0.041 µM,,
"Cc1ccncc1-c1ccc2[nH]nc(-c3cc4c(-c5ccncc5)cccc4[nH]3)c2n1 [Compound 117, 5-(4-Methylpyridin-3-yl)-3-(4-(pyridin-4-yl)-1H-indol-2-yl)-1H-pyrazolo [4,3-b]pyridine]",0.021 µM,0.197 µM,,
"c1cc(-c2ccncc2)c2cc(-c3n[nH]c4ccc(-c5cncc(CN6CCCCC6)c5)nc34)[nH]c2c1 [Compound 127, 5-(5-(Piperidin-1-ylmethyl)pyridin-3-yl)-3-(4-(pyridin-4-yl)-1H-indol-2-yl)-1H-pyrazolo[4,3-b]pyridine]",0.483 µM,8.9 µM,,
"c1cc(-c2ccncc2)c2cc(-c3n[nH]c4ccc(-c5cncc(CNCC6CCCC6)c5)nc34)[nH]c2c1 [Compound 137, 1-Cyclopentyl-N-((5-(3-(4-(pyridin-4-yl)-1H-indol-2-yl)-1H-pyrazolo[4,3-b]pyridin-5-yl)pyridin-3-yl)methyl)methanamine]",3.24 µM,0.701 µM,,
"c1ccc(-c2ccc3[nH]nc(-c4cc5c(-c6ccncc6)cccc5[nH]4)c3n2)nc1 [Compound 140, 5-(Pyridin-2-yl)-3-(4-(pyridin-4-yl)-1H-indol-2-yl)-1H-pyrazolo[4,3-b] pyridine]",0.249 µM,0.52 µM,,
"FC1(F)CCN(Cc2cncc(-c3ccc4[nH]nc(-c5cc6c(-c7ccccn7)cccc6[nH]5)c4n3)c2)C1 [Compound 166, 5-(5-((3,3-Difluoropyrrolidin-1-yl)methyl)pyridin-3-yl)-3-(4-(pyridin-2-yl)-1H-indol-2-yl)-1H-pyrazolo[4,3-b]pyridine]",0.306 µM,0.164 µM,,
"c1ccc(-c2cccc3[nH]c(-c4n[nH]c5ccc(-c6cncnc6)nc45)cc23)nc1 [Compound 167, 3-(4-(Pyridin-2-yl)-1H-indol-2-yl)-5-(pyrimidin-5-yl)-1H-pyrazolo[4,3-b] pyridine]",> 10 µM,0.201 µM,12.8%,
"CCCCC(=O)Nc1cncc(-c2ccc3[nH]nc(-c4cc5c(N6CCCCC6)cccc5[nH]4)c3n2)c1 [Compound 187, N-(5-(3-(4-(Piperidin-1-yl)-1H-indol-2-yl)-1H-pyrazolo[4,3-b]pyridin-5-yl)pyridin-3-yl)pentanamide]",0.085 µM,2.04 µM,,
"c1ccc(-c2ccc3[nH]nc(-c4cc5c(N6CCCCC6)cccc5[nH]4)c3n2)nc1 [Compound 196, 3-(4-(Piperidin-1-yl)-1H-indol-2-yl)-5-(pyridin-2-yl)-1H-pyrazolo[4,3-b] pyridine]",1.86 µM,> 10 µM,,5.2%
"Cc1ccncc1-c1ccc2[nH]nc(-c3cc4c(N5CCN(C)CC5)cccc4[nH]3)c2n1 [Compound 229, 3-(4-(4-Methylpiperazin-1-yl)-1H-indol-2-yl)-5-(4-methylpyridin-3-yl)-1H-pyrazolo[4,3-b]pyridine]",1.28 µM,4.92 µM,,
"CN1CCN(c2cccc3[nH]c(-c4n[nH]c5ccc(-c6cncc(NC(=O)c7ccccc7)c6)nc45)cc23)CC1 [Compound 235, N-(5-(3-(4-(4-Methylpiperazin-1-yl)-1H-indol-2-yl)-1H-pyrazolo[4,3-b]pyridin-5-yl)pyridin-3-yl)benzamide]",0.741 µM,1.69 µM,,
"CN1CCN(c2cccc3[nH]c(-c4n[nH]c5ccc(-c6cncnc6)nc45)cc23)CC1 [Compound 251, 3-(4-(4-Methylpiperazin-1l-yl)-1H-indol-2-yl)-5-(pyrimidin-5-yl)-1H-pyrazolo[4,3-b]pyridine]",0.751 µM,7.79 µM,,
"c1cncc(-c2ccc3[nH]nc(-c4cc5ccccc5[nH]4)c3n2)c1 [Compound 256, 3-(1H-Indol-2-yl)-5-(pyridin-3-yl)-1H-pyrazolo[4,3-b]pyridine]",0.013 µM,1.14 µM,,
"CN(C)Cc1cncc(-c2ccc3[nH]nc(-c4cc5ccccc5[nH]4)c3n2)c1 [Compound 265, 1-(5-(3-(1H-Indol-2-yl)-1H-pyrazolo[4,3-b]pyridin-5-yl)pyridin-3-yl)-N,N-dimethylmethanamine]",> 10 µM,0.521 µM,0%,
"FC1(F)CCN(Cc2cncc(-c3ccc4[nH]nc(-c5cc6ccccc6[nH]5)c4n3)c2)C1 [Compound 278, 5-(5-((3,3-Difluoropyrrolidin-1-yl)methyl)pyridin-3-yl)-3-(1H-indol-2-yl)-1H-pyrazolo[4,3-b]pyridine]",0.207 µM,0.09 µM,,
"CN(C)c1cncc(-c2ccc3[nH]nc(-c4cc5c(-c6ccoc6)cccc5[nH]4)c3n2)c1 [Compound 315, 5-(3-(4-(Furan-3-yl)-1H-indol-2-yl)-1H-pyrazolo[4,3-b]pyridin-5-yl)-N,N-dimethylpyridin-3-amine]",1.37 µM,0.631 µM,,
"c1cc(-c2ccoc2)c2cc(-c3n[nH]c4ccc(-c5cncc(CNCC6CCCC6)c5)nc34)[nH]c2c1 [Compound 333, 1-Cyclopentyl-N-((5-(3-(4-(furan-3-yl)-1H-indol-2-yl)-1H-pyrazolo[4,3-b]pyridin-5-yl)pyridin-3-yl)methyl)methanamine]",3.57 µM,0.955 µM,,
"FC1(F)CCN(Cc2cncc(-c3ccc4[nH]nc(-c5cc6c(-c7cccs7)cccc6[nH]5)c4n3)c2)C1 [Compound 362, 5-(5-((3,3-Difluoropyrrolidin-1-yl)methyl)pyridin-3-yl)-3-(4-(thiophen-2-yl)-1H-indol-2-yl)-1H-pyrazolo[4,3-b]pyridine]",6.34 µM,1.29 µM,,
"CN(C)CCNc1cc(F)cc(-c2cccc3[nH]c(-c4n[nH]c5ccc(-c6cccnc6)nc45)cc23)c1 [Compound 452, N^1-(3-Fluoro-5-(2-(5-(pyridin-3-yl)-1H-pyrazolo[4,3-b]pyridin-3-yl)-1H-indol-4-yl)phenyl)-N^2,N^2-dimethylethane-1,2-diamine]",0.068 µM,0.038 µM,,
"CN(C)CCNc1cc(F)cc(-c2cccc3[nH]c(-c4n[nH]c5ccc(-c6cncc(CN7CCCCC7)c6)nc45)cc23)c1 [Compound 463, N^1-(3-Fluoro-5-(2-(5-(5-(piperidin-1-ylmethyl)pyridin-3-yl)-1H-pyrazolo [4,3-b]pyridin-3-yl)-1H-indol-4-yl)phenyl)-N^2,N^2-dimethylethane-1,2-diamine]",0.209 µM,0.772 µM,,
"CN(C)CCNc1cc(F)cc(-c2cccc3[nH]c(-c4n[nH]c5ccc(-c6cncnc6)nc45)cc23)c1 [Compound 475, N^1-(3-Fluoro-5-(2-(5-(pyrimidin-5-yl)-1H-pyrazolo[4,3-b]pyridin-3-yl)-1H-indol-4-yl)phenyl)-N^2,N^2-dimethylylethane-1,2-diamine]",0.018 µM,0.306 µM,,
